Experimental data taken from patent US20250154193A1, “STEROID COMPOUND, AND PREPARATION METHOD THEREFOR AND APPLICATION THEREOF” (CHOLESGEN (SHANGHAI) CO., LTD., priority 2022, published 2025).

What was measured:
Ldlr−/− mice [1] = test: Sudan IV staining of atherosclerotic plaques of the aortic tree; type: in vivo; details: AMLN diet, intragastrically once a day, 8 weeks, vs control group
From the text: After the administration experiment in mice, the aorta was isolated and fixed in 4% PFA. Perivascular adipose tissues were removed with ophthalmic forceps under a stereo microscope, stained with Sudan IV, and atherosclerotic plaques were washed in 70% ethanol. After staining, the aortic tree was imaged using a ZEISS Axio Zoom.V16 stereo microscope. Atherosclerotic lesions were quantified using ImageJ software.
AMLN-fed Ldlr^−/− mice also served as a common model for atherosclerosis, allowing simultaneous study of both fatty liver and atherosclerosis. Male Ldlr^−/− mice at 8 weeks of age were fed with AMLN diet and intragastrically administered once a day for a total of 8 weeks. After the mice were euthanized, the aorta was isolated and fixed in 4% paraformaldehyde. Perivascular adipose tissues were removed under a stereo microscope, stained with Sudan IV, and rinsed with 70% ethanol. The aortic tree was imaged using a stereo microscope (Axio Zoom.V16, ZEISS, Germany). Atherosclerotic plaques were quantified using ImageJ software.

[2] = Liver microsomal metabolic stability assay; type: in vitro ADME; details: rat liver microsomes, NADPH, 37° C., 0-60 minutes; read-out: Rat microsomal metabolic half-life (t1/2)
Description: PBS solution (100 mM), MgCl2 solution (100 mM), and NADPH solution (20 mM) were prepared respectively. Compound and testosterone (positive control) stock solutions were then prepared with dimethyl sulfoxide (DMSO), diluted to 100 µM with methanol for sample incubation, and stored at −10 to −30° C. 12.5 μL of rat liver microsomes (purchased from XenoTech, Cat. No.: R1000, Lot No.: 1310030, specification: 20 mg/mL), 432.5 µL of PBS solution (100 mM), 25 µL of NADPH solution (20 mM), and 25 μL of MgCl2 solution (100 mM) were added to a 96-well plate, mixed well, and pre-incubated at 37° C. for 5 minutes. 5 µL of substrate (test compound) solution was added to start the reaction. At specified time points of 0, 5, 15, 30, 45, and 60 minutes (0 and 60 minutes for the negative control group), 50 µL of the incubated samples were added to a stop plate containing 100 µL of ice-cold stop solution, vortexed for 1 minute to inactivate the reaction, and stored at −60 to −90° C. for subsequent analysis. Sample analysis of the test compound and the control compound testosterone was performed using LC-MS/MS method. Chromatographic peaks were integrated, calculated, and processed using Analyst software. Semi-quantitative analysis was performed for both the test compound and the control compound testosterone by calculating peak area ratios.

Ldlr−/− mice [3] = test: AMLN diet-induced fatty liver model: body weight, serum and liver metabolic parameters; type: in vivo; details: 30 mg/kg/day intragastrically, 8 weeks
From the text: Animals: Adult male C57BL/6J mice were purchased from Shanghai SLAC, and low-density lipoprotein receptor knockout mice (Ldlr^−/− mice, T001464) were purchased from Jiangsu GemPharmatech Co., Ltd. Mice were housed in an environment free of pathogens, maintained in a 12-hour light/dark cycle, and had free access to water and feed. The vehicle for oral gavage was 0.5% Tween-80, 0.5% methylcellulose, and 0.9% sodium chloride. AMLN feed (AMLN, Dyets) contains 40% (kcal %) fat (80% of which is trans fat), 22% (mass %) fructose, and 2% (mass %) cholesterol.
After drug treatment, mice were fasted for 4 hours before being euthanized, and blood and liver samples were collected. Blood was coagulated and centrifuged at 1,500 g for 10 minutes at 4° C. to obtain the supernatant (i.e., serum). Lipids from liver were extracted using the chloroform/methanol method. The samples were first homogenized and crushed using a Precelly 24 homogenizer, and centrifuged at 16,000 g for 10 minutes at 4° C. The organic phase was transferred to a new tube, dried with nitrogen, and dissolved in ethanol. Total cholesterol and triglyceride levels in blood and liver were measured by cholesterol and triglyceride kits (Shanghai Kehua Bio-Engineering Co., Ltd.), respectively. ALT (LE-M0477, Lai Er Bio-Tech) and AST (LE-M0568, Lai Er Bio-Tech) levels in serum were measured according to the corresponding manufacturer's manuals, using an analytical system from Sysmex Shanghai Ltd.
Male C57BL/6J mice and male Ldlr^−/− mice (TOO1464, Jiangsu GemPharmatech Co., Ltd.) at 8 weeks of age were purchased, grouped, fed with different diets, and treated with different drugs. The mice were randomly divided into 4 groups with 8 to 9 mice in each group: One group consisted of C57BL/6J wild-type mice, which was the chow diet (CD) vehicle control group. The other three groups consisted of Ldlr^−/− knockout mice, including chow diet (CD) vehicle control group, AMLN diet (containing […], 22% fructose, and 2% cholesterol) vehicle control group, and AMLN diet combined with 25-hydroxylanosterol administration group (25-hydroxylano sterol was administered at a concentration of 30 mg/kg/day). The mice in four groups were intragastrically administered once a day, during which the changes in food intake and body weight of the mice in different treatment groups were counted. After 8 weeks, blood and liver samples were collected from the mice to analyze blood lipids, liver lipids, and liver damage phenotypes.
In FIGS. 1 and 2, P values were calculated using the statistical analysis of two-way ANOVA (Dunnett's multiple comparisons test); * indicates P<0.05; ns indicates no statistical difference. In FIGS. 3 to 8, data are represented as mean±standard deviation. P values were calculated using one-way ANOVA; * indicates P<0.05; ** indicates P<0.01; *** indicates P<0.001.

C[C@H](CCCC(C)(C)O)[C@H]1CC[C@@]2(C)C3=C(CC[C@]12C)[C@@]1(C)CC[C@H](O)C(C)(C)[C@@H]1CC3 [compound 68, (1R,3aR,5aR,7S,9aS,11aR)-1-[(2R)-6-hydroxy-6-methylheptan-2-yl]-3a,6,6,9a,11a-pentamethyl-2,3,3a,4,5,5a,6,7,8,9,9a,10,11,11a-tetradecahydro-1H-cyclopenta[1,2-a]phenanthren-7-ol]
8.36 min: half-life at 1 µM [2]
significantly reduced: formation and quantity of atherosclerotic plaques (Sudan IV staining of aortic tree) (Ldlr−/− mice [1]) | alanine aminotransferase (ALT) in serum (Ldlr−/− mice [3]) | aspartate aminotransferase (AST) in serum (Ldlr−/− mice [3]) | total liver cholesterol levels (Ldlr−/− mice [3]) | total liver triglyceride levels (Ldlr−/− mice [3]) | total cholesterol levels in serum (Ldlr−/− mice [3]; vs control group) | total triglyceride levels in serum (Ldlr−/− mice [3]; vs control group)
significantly lower: AMLN diet-induced weight gain (Ldlr−/− mice [3]; vs AMLN diet vehicle control)
